In the METLIN SMRT retention time set (Domingo-Almenara et al. 2019):

Assay: gradient 5% acetonitrile 3 min, to 50% in 2 min, to 85% in 15 min, held 3 min, 100 µL/min
Conditions: column: Zorbax Extend-C18 2.1 x 50 mm; eluents: water / acetonitrile, 0.1% formic acid
Method in brief: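 Using water and acetonitrile that each contained 0.1% formic acid, mixtures of ~100 pure standards were separated at 100 μL/min on a Zorbax Extend-C18 column (2.1 × 50 mm, 1.8 μm). The HPLC fed a quadrupole time-of-flight mass spectrometer working in positive and negative ionization mode, with dead and dwell volumes of 40 μL and 900 μL. Data were acquired over 3 months. Retention time was read from computationally picked adduct peaks after manual inspection of each.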

Compound	RP-LC retention time
Cc1ccc(NC(=O)Cn2c(=O)nc(N3CCCC(C)C3)c3ccccc32)cc1C (stereo unspecified)	895 s
Cc1cnc(C(=O)N[C@@H]2CCC[C@@H]2C(=O)NC2CCCC2)cn1	638 s
COc1ccccc1NC(=O)N1CCC(CNC(=O)c2ccc(Br)o2)CC1	744 s
Cc1[nH]c(/C=C2\C(=O)Nc3ccc(S(=O)(=O)Cc4c(Cl)cccc4Cl)cc32)c(C)c1C(=O)N1CCC[C@@H]1CN1CCCC1	787 s
Cc1ccc(N2CCC(NC(=O)c3ccc4nc[nH]c4c3)C2=O)cc1 (stereo unspecified)	607 s
CSc1ccc(CCNC(=O)Cn2nc(-n3cccc3)c3c(C)cc(C)nc32)cc1	1050 s
CC(C(=O)Nc1nc2ccc(S(C)(=O)=O)cc2s1)n1nnc2ccccc2c1=O (stereo unspecified)	706 s
COc1ccc(CN2C[C@@H]3C(=O)N(C)C(=O)[C@@H]3C2)cc1OC	566 s
CC1(C)Cc2cccc(OCC(=O)NCC3CN(c4ccccc4)C(=O)O3)c2O1 (stereo unspecified)	796 s
CCN1C(=O)c2cc(S(=O)(=O)Nc3cc(F)ccc3F)ccc2Oc2cccnc21	980 s
Cn1cc(C(=O)N2CCOCC2)c2cccnc21	601 s
Cc1nn(Cc2nc(-c3ccc(NC(=O)c4cccs4)cc3)oc2C)c(C)c1C	922 s
CCCn1c(=O)sc2cc(S(=O)(=O)N3CCC(C(=O)Nc4cccc(OC)c4)CC3)ccc21	978 s
O=C1NC2(CCN(C(=O)Cc3cccc(F)c3)CC2)Nc2cc(Cl)ccc21	808 s
COc1ccc(NC(C)=O)cc1NC(=O)C1CC(=O)N(c2n[nH]c3cccc(F)c23)C1 (stereo unspecified)	634 s
COc1cccc(CN2CCC(N3CC4(CCCCC4)C3c3ccccc3)CC2)c1OC (stereo unspecified)	624 s
CCN(Cc1ccccc1)C(=O)Cn1c(N2CCCC2)nc(C)cc1=O	660 s
CCOC(=O)C1CCN(S(=O)(=O)c2cccc3nsnc23)CC1	810 s
CCCn1c(-c2cccc(C(=O)NC(C)c3ccc(C)cc3C)c2)nc2cccnc21 (stereo unspecified)	955 s
COC(=O)c1ccc(-c2nc3cnccn3c2Nc2ccc(C)cc2Br)cc1	1060 s
COc1ccccc1N1CCN(C(=O)c2cn3ccccc3n2)CC1	603 s

Compound	RP-LC retention time
CC(NC(=O)c1ccc2c(c1)nc1n2CCN(C2CCCCC2)C1=O)c1ccccc1 (stereo unspecified)	836 s
CNC(=O)c1ccc(-n2c(C)ccc2C)nc1	697 s
CCc1ccc(NC(=O)c2c(C)sc3ncnc(N4CCCC4)c23)cc1	975 s
COCc1nc(C2CCN(C(=O)C3CCCC3)C2)no1 (stereo unspecified)	688 s
CCC(C)NC(=O)c1cn(-c2ccc(-c3nc(C4CC4)no3)cn2)cn1 (stereo unspecified)	883 s
CCOc1cc(-c2ccc(F)cc2)nc2ccc(NC(=O)C3CCC3)cc12	774 s
O=C(Cn1ccc2ccn(Cc3cccnc3)c2c1=O)NC1CCCC1	605 s
COc1ccc(-c2nc(CN3C(=O)C(O)(c4cccc(F)c4)c4ccccc43)c(C)o2)cc1 (stereo unspecified)	1040 s
Cc1cccc2c(=O)n(C3CCN(S(=O)(=O)c4ccc(CC(C)C)cc4)CC3)cnc12	1230 s
CCn1cnc(S(=O)(=O)N2CCCC(C(=O)Nc3ccc(F)cc3C)C2)c1 (stereo unspecified)	726 s
O=C1C2N=NN(Cc3nc(-c4ccccc4)no3)C2C(=O)N1c1ccccc1 (stereo unspecified)	906 s
Cn1cccc1C(=O)NC(C)(C)c1nc2c(c(C(N)=O)n1)OCCO2	608 s
O=C([C@@H]1C[C@H](F)CN1S(=O)(=O)c1cc(F)cc(F)c1)N1CCc2ccccc2C1	961 s
COCCNC(=O)COc1cc(C)nc(-c2ccc(Cl)cc2)n1	828 s
O=C1CCCc2cc(S(=O)(=O)N3CCC(C(=O)NCc4ccco4)CC3)ccc2N1	678 s
CCC(=O)NCc1nc2c(n1CC)CN(C(=O)c1cccc(Br)c1)CC2	596 s
Cc1nc(-c2noc(-c3cccnc3)n2)cn1CC(=O)NCc1cccs1	662 s
CCc1nc(-c2csc(S(=O)(=O)N3CCCC(C(=O)Nc4ccc(Cl)cn4)C3)c2)no1 (stereo unspecified)	1080 s
CCN1CCn2cc(C(=O)N3CCN(c4ccccc4Cl)CC3)nc2C1	622 s
CC(C)NC(=O)NCCC1CCN(S(=O)(=O)c2ccccc2)CC1	732 s
Cc1ccc2[nH]c(C(=O)NC3CCN(C)CC3)cc2c1	845 s

Results, then the compound that gave them:

RP-LC retention time	Compound
675 s	c1ccc(N2CCN(c3nnc(-n4cccc4CN4CCN(c5ccccn5)CC4)s3)CC2)cc1
941 s	CCOC(=O)N1CCN(C(=O)CSc2nc(-c3cccc(C)c3)ns2)CC1
675 s	Cc1ncc2c(n1)CCN(C(=O)c1ccc(Br)cc1)C2
1080 s	CCCn1c(=O)c(C)nc2cc(-c3noc(-c4ccc(C#N)cc4)n3)ccc21
741 s	Cc1c(C(=O)NC2CCCC2)cnn1-c1ccc(-c2nc(C(C)C)no2)cn1
631 s	CCCCNC(=O)C1CCN(c2cc(N3CCSCC3)ncn2)CC1
659 s	COc1ccc2c(c1)CCc1c-2n[nH]c1C(=O)N1CCN(c2cc(=O)n(C)c(=O)n2C)CC1
814 s	COC(=O)C(C)NC(=O)NCc1cccn1Cc1ccc(F)cc1 (stereo unspecified)
570 s	CCOC(=O)c1[nH]c(C)c(CCC(=O)NC(C)C(=O)N2CCCCC2)c1C (stereo unspecified)
934 s	O=C(CCCn1c(=O)c2cccn2c2ccc(F)cc21)N1CCCCCC1
852 s	O=C(c1ccc(Br)o1)N1CCCC(c2nnc(-c3ccccc3)o2)C1 (stereo unspecified)
692 s	O=C(c1ccccc1N1C(=O)c2cccc3cccc(c23)C1=O)N1CCOCC1
742 s	O=C(NCc1ccc(F)cc1)C1CCN(S(=O)(=O)c2ccc3[nH]c(=O)sc3c2)CC1
587 s	Cc1ncoc1C(=O)N1CCC(N2CC(OCC3CC3)C23CCOCC3)CC1 (stereo unspecified)
620 s	N#Cc1ccc(S(=O)(=O)N2CCC(Cc3nc(-c4ccncc4)n[nH]3)C2)cc1 (stereo unspecified)
979 s	CCCn1c(=O)sc2cc(S(=O)(=O)N3CCC(C(=O)Nc4ccc(F)cc4)CC3)ccc21
849 s	COC(=O)c1cccc(C(=O)NC2(c3nc(C)no3)CCCCC2)c1
927 s	Cc1cc(N(C)C)n2nc(-c3ccc(C(C)(C)C)cc3)nc2n1
1140 s	CC1CCN(c2cc(-n3cnc(C(=O)N4CCc5ccccc54)c3)ncn2)CC1
654 s	CCN1C(=O)CN(C(=O)C2CCCCC2)CC12CCOCC2
1110 s	COc1ccc(N2CCN(c3cc(SCC(=O)Nc4ccc(C(C)C)cc4)ncn3)CC2)cc1
670 s	COc1cc(OC)c(NC(=O)N2CCC(n3cnc4cccnc43)CC2)cc1Cl
836 s	Cc1cccc(NC(=O)N2CCC(n3cnc4ccc(C)cc4c3=O)CC2)c1
1050 s	COc1ccc(C)cc1NC(=O)Cn1nc2c(Oc3cc(C)cc(C)c3)nccn2c1=O
